Data: patent US5696083A, “Personal care composition containing pyrithione and polymyxin” (Olin Corporation, priority 1994, dated 1997)

Legend:
Test in all cases: MIC in Tryptic Soy Broth, compounds alone and in mixtures
Type in all cases: cell-based
Alcaligens faecalis = settings: 28° C.; for Minimum Inhibitory Concentration, Compound Used Alone: Tryptic Soy Broth
Protocol: (§1) Determinations of minimum inhibitory concentrations (MIC's) of the two compounds (pyrithione salts and/or polymyxin sulfate) in a nutrient broth (alone and in mixtures) were conducted to evaluate interactions. Stock solutions of pyrithione salts and/or polymyxin salts were diluted in Tryptic Soy Broth (Difco), and the dilutions were inoculated with an equal volume of bacterial culture (10^6 /ml) or fungal spore suspension (10^5 /ml) in Tryptic Soy Broth and incubated at 28° C. for 3-7 days.
(§2) The interactions of the antimicrobials were determined according to accepted procedures (M. C. Berenbaum [Tables 1 and 2] and P. F. Dougherty "Microdilution Transfer Plate Technique for Determining In Vitro Synergy of Antimicrobial Agents", ANTIMICROBIAL AGENTS AND CHEMOTHERAPY, Vol. 11, No. 2, p. 225-228 (Feb. 1977, American Society for Microbiology) [Tables 3 and 4]). The concentration of each agent in the combination that inhibits the organisms is expressed as a fraction of the concentration that causes the same effect when the same agent is tested alone (i.e., its fractional inhibitory concentration, FIC). If the sum of the FIC's is 1, the combination is additive in its antimicrobial effect; if the sum is <1, the combination is synergistic; and if the sum is >1, the combination is antagonistic.
(§3) ^a Compounds were serially diluted in Tryptic soy Broth (DIFCO),
(§4) ^b Each dilution contained 10^6 bacteria/ml of 10^5 fungi/ml.
(§5) ^a Stock solutions of ZP in dimethylsulfoxide and PB in sterile water

Aspergillus niger = settings: 28° C.; for Minimum Inhibitory Concentration, Compound Used Alone: Tryptic Soy Broth
Protocol: as §1, §2, §3, §4, §5

Aureobasidium pullulans = settings: 28° C.; for Minimum Inhibitory Concentration, Compound Used Alone: Tryptic Soy Broth
Protocol: as §1, §2, §3, §4, §5

Candida albicans = settings: 28° C.; for Minimum Inhibitory Concentration, Compound Used Alone: Tryptic Soy Broth
Protocol: as §1, §2, §3, §4, §5

Cephalosporium sp. = settings: 28° C.; for Minimum Inhibitory Concentration, Compound Used Alone: Tryptic Soy Broth
Protocol: as §1, §2, §3, §4, §5

Chaetomium globosium = settings: 28° C.; for Minimum Inhibitory Concentration, Compound Used Alone: Tryptic Soy Broth
Protocol: as §1, §2, §3, §4, §5

Citrobacter freundii = settings: 28° C.; for Minimum Inhibitory Concentration, Compound Used Alone: Tryptic Soy Broth
Protocol: as §1, §2, §3, §4, §5

Fusarium solani = settings: 28° C.; for Minimum Inhibitory Concentration, Compound Used Alone: Tryptic Soy Broth
Protocol: as §1, §2, §3, §4, §5

Gliocladium virens = settings: 28° C.; for Minimum Inhibitory Concentration, Compound Used Alone: Tryptic Soy Broth
Protocol: as §1, §2, §3, §4, §5

Penicillin pinophilium = settings: 28° C.; for Minimum Inhibitory Concentration, Compound Used Alone: Tryptic Soy Broth
Protocol: as §1, §2, §3, §4, §5

Proteus mirabilis = settings: 28° C.; for Minimum Inhibitory Concentration, Compound Used Alone: Tryptic Soy Broth
Protocol: as §1, §2, §3, §4, §5

Pseudomonas Stutzeri = settings: 28° C.; for Minimum Inhibitory Concentration, Compound Used Alone: Tryptic Soy Broth
Protocol: as §1, §2, §3, §4, §5

Pseudomonas aeruginosa = settings: 28° C.; for Minimum Inhibitory Concentration, Compound Used Alone: Tryptic Soy Broth
Protocol: as §1, §2, §3, §4, §5

Pseudomonas fluorescens = settings: 28° C.; for Minimum Inhibitory Concentration, Compound Used Alone: Tryptic Soy Broth
Protocol: as §1, §2, §3, §4, §5

Pseudomonas oleovorans = settings: 28° C.; for Minimum Inhibitory Concentration, Compound Used Alone: Tryptic Soy Broth
Protocol: as §1, §2, §3, §4, §5

Pseudomonas rubescens = settings: 28° C.; for Minimum Inhibitory Concentration, Compound Used Alone: Tryptic Soy Broth
Protocol: as §1, §2, §3, §4, §5

[1] = tested on: Trichophyton mentagrophytes; settings: 28° C.; for Minimum Inhibitory Concentration, Compound Used Alone: Tryptic Soy Broth
Protocol: as §1, §2, §3, §4, §5

Fusarium sp. = settings: 28° C.
Excerpt: as §3, §4, §5

[2] = Table 1, 3 days, PB sulfate 7610 units/mg
[3] = Table 2, 6 days, PB sulfate 7730 units/mg
[4] = Table 1, 6-7 days, PB sulfate 7610 units/mg
[5] = Table 2, 7 days, PB sulfate 7730 units/mg
[6] = Table 2, concentration of the component in ZP+PB mixture, ZP/PB ratio 1/32-1/8, 7 days
[7] = Table 1, concentration of the component in SP+PB mixture, SP/PB ratio 1/20-1/10, 6-7 days
[8] = Table 1, concentration of the component in SP+PB mixture, SP/PB ratio 1, 6-7 days
[9] = Table 2, concentration of the component in ZP+PB mixture, ZP/PB ratio 1/8-1, 7 days
[10] = Table 1, concentration of the component in SP+PB mixture, SP/PB ratio 650, 3 days

Polymyxin B sulfate [PB]
Minimum Inhibitory Concentration, Compound Used Alone (Alcaligens faecalis; [2]): 1.4 ppm
Minimum Inhibitory Concentration, Mixture (Alcaligens faecalis; Table 1, concentration of the component in SP+PB mixture, SP/PB ratio 5-41, 3 days): 0.5 ppm
Minimum Inhibitory Concentration, Compound Used Alone (Alcaligens faecalis; [3]): 3.3 ppm
Minimum Inhibitory Concentration, Mixture (Alcaligens faecalis; Table 2, concentration of the component in ZP+PB mixture, ZP/PB ratio 8-32, 6 days): 0.6 ppm
Minimum Inhibitory Concentration, Compound Used Alone (Aspergillus niger; [4]): 1536.0 ppm
Minimum Inhibitory Concentration, Mixture (Aspergillus niger; Table 1, concentration of the component in SP+PB mixture, SP/PB ratio 1/10, 6-7 days): 256.0 ppm
Minimum Inhibitory Concentration, Compound Used Alone (Aspergillus niger; [5]): 1024.0 ppm
Minimum Inhibitory Concentration, Mixture (Aspergillus niger; [6]): 298.7 ppm
Minimum Inhibitory Concentration, Compound Used Alone (Aureobasidium pullulans; [4]): 256.0 ppm
Minimum Inhibitory Concentration, Mixture (Aureobasidium pullulans; [7]): 48.0 ppm
Minimum Inhibitory Concentration, Compound Used Alone (Aureobasidium pullulans; [5]): 288.0 ppm
Minimum Inhibitory Concentration, Mixture (Aureobasidium pullulans; Table 2, concentration of the component in ZP+PB mixture, ZP/PB ratio 1/32-1/16, 7 days): 80.0 ppm
Minimum Inhibitory Concentration, Compound Used Alone (Candida albicans; [4]): 256.0 ppm
Minimum Inhibitory Concentration, Mixture (Candida albicans; [7]): 64.0 ppm
Minimum Inhibitory Concentration, Compound Used Alone (Candida albicans; [5]): 341.3 ppm
Minimum Inhibitory Concentration, Mixture (Candida albicans; [6]): 74.7 ppm
Minimum Inhibitory Concentration, Compound Used Alone (Cephalosporium sp.; [4]): 256.0 ppm
Minimum Inhibitory Concentration, Mixture (Cephalosporium sp.; [8]): 12.0 ppm
Minimum Inhibitory Concentration, Compound Used Alone (Cephalosporium sp.; [5]): 170.7 ppm
Minimum Inhibitory Concentration, Mixture (Cephalosporium sp.; Table 2, concentration of the component in ZP+PB mixture, ZP/PB ratio 1/16-1/8, 7 days): 42.7 ppm
Minimum Inhibitory Concentration, Compound Used Alone (Chaetomium globosium; [4]): 24.0 ppm
Minimum Inhibitory Concentration, Mixture (Chaetomium globosium; Table 1, concentration of the component in SP+PB mixture, SP/PB ratio 1/10-1/5, 6-7 days): 16.0 ppm
Minimum Inhibitory Concentration, Compound Used Alone (Chaetomium globosium; [5]): 85.3 ppm
Minimum Inhibitory Concentration, Mixture (Chaetomium globosium; [9]): 37.3 ppm
Minimum Inhibitory Concentration, Compound Used Alone (Citrobacter freundii; [2]): 0.5 ppm
Minimum Inhibitory Concentration, Mixture (Citrobacter freundii; Table 1, concentration of the component in SP+PB mixture, SP/PB ratio 41-81, 3 days): 0.1 ppm
Minimum Inhibitory Concentration, Compound Used Alone (Citrobacter freundii; [3]): 0.4 ppm
Minimum Inhibitory Concentration, Mixture (Citrobacter freundii; Table 2, concentration of the component in ZP+PB mixture, ZP/PB ratio 16-64, 6 days): 0.1 ppm
Minimum Inhibitory Concentration, Compound Used Alone (Fusarium solani; [4]): 128.0 ppm
Minimum Inhibitory Concentration, Mixture (Fusarium solani; [8]): 32.0 ppm
Minimum Inhibitory Concentration, Compound Used Alone (Fusarium solani; [5]): 85.3 ppm
Minimum Inhibitory Concentration, Mixture (Fusarium solani; [9]): 37.3 ppm
Minimum Inhibitory Concentration, Compound Used Alone (Gliocladium virens; [4]): 74.7 ppm
Minimum Inhibitory Concentration, Mixture (Gliocladium virens; Table 1, concentration of the component in SP+PB mixture, SP/PB ratio 1/10-1, 6-7 days): 21.3 ppm
Minimum Inhibitory Concentration, Compound Used Alone (Gliocladium virens; [5]): 64.0 ppm
Minimum Inhibitory Concentration, Mixture (Gliocladium virens; Table 2, concentration of the component in ZP+PB mixture, ZP/PB ratio 1-2, 7 days): 20.0 ppm
Minimum Inhibitory Concentration, Compound Used Alone (Penicillin pinophilium; [4]): 256.0 ppm
Minimum Inhibitory Concentration, Mixture (Penicillin pinophilium; [7]): 48.0 ppm
Minimum Inhibitory Concentration, Compound Used Alone (Penicillin pinophilium; [5]): 128.0 ppm
Minimum Inhibitory Concentration, Mixture (Penicillin pinophilium; Table 2, concentration of the component in ZP+PB mixture, ZP/PB ratio 1/8, 7 days): 32.0 ppm
Minimum Inhibitory Concentration, Compound Used Alone (Proteus mirabilis; [2]): > 2048.0 ppm
Minimum Inhibitory Concentration, Mixture (Proteus mirabilis; Table 1, concentration of the component in SP+PB mixture, SP/PB ratio 1/20-1, 3 days): 288.0 ppm
Minimum Inhibitory Concentration, Compound Used Alone (Proteus mirabilis; [3]): > 2048.0 ppm
Minimum Inhibitory Concentration, Mixture (Proteus mirabilis; Table 2, concentration of the component in ZP+PB mixture, ZP/PB ratio 1/32, 6 days): 64.0 ppm
Minimum Inhibitory Concentration, Compound Used Alone (Pseudomonas Stutzeri; [2]): 0.3 ppm
Minimum Inhibitory Concentration, Mixture (Pseudomonas Stutzeri; Table 1, concentration of the component in SP+PB mixture, SP/PB ratio 325-650, 3 days): 0.1 ppm
Minimum Inhibitory Concentration, Compound Used Alone (Pseudomonas Stutzeri; [3]): 0.3 ppm
Minimum Inhibitory Concentration, Mixture (Pseudomonas Stutzeri; Table 2, concentration of the component in ZP+PB mixture, ZP/PB ratio 16-128, 6 days): < 0.1 ppm
Minimum Inhibitory Concentration, Compound Used Alone (Pseudomonas aeruginosa; [2]): 0.7 ppm
Minimum Inhibitory Concentration, Mixture (Pseudomonas aeruginosa; Table 1, concentration of the component in SP+PB mixture, SP/PB ratio 163-325, 3 days): 0.3 ppm
Minimum Inhibitory Concentration, Compound Used Alone (Pseudomonas aeruginosa; [3]): 1.0 ppm
Minimum Inhibitory Concentration, Mixture (Pseudomonas aeruginosa; Table 2, concentration of the component in ZP+PB mixture, ZP/PB ratio 128-256, 6 days): 0.5 ppm
Minimum Inhibitory Concentration, Compound Used Alone (Pseudomonas fluorescens; [2]): 10.7 ppm
Minimum Inhibitory Concentration, Mixture (Pseudomonas fluorescens; Table 1, concentration of the component in SP+PB mixture, SP/PB ratio 3-10, 3 days): 1.2 ppm
Minimum Inhibitory Concentration, Compound Used Alone (Pseudomonas fluorescens; [3]): 6.7 ppm
Minimum Inhibitory Concentration, Mixture (Pseudomonas fluorescens; Table 2, concentration of the component in ZP+PB mixture, ZP/PB ratio 8-16, 6 days): 0.4 ppm
Minimum Inhibitory Concentration, Compound Used Alone (Pseudomonas oleovorans; [2]): 0.3 ppm
Minimum Inhibitory Concentration, Mixture (Pseudomonas oleovorans; [10]): < 0.1 ppm
Minimum Inhibitory Concentration, Compound Used Alone (Pseudomonas oleovorans; [3]): 0.5 ppm
Minimum Inhibitory Concentration, Mixture (Pseudomonas oleovorans; Table 2, concentration of the component in ZP+PB mixture, ZP/PB ratio 16-32, 6 days): 0.2 ppm
Minimum Inhibitory Concentration, Compound Used Alone (Pseudomonas rubescens; [2]): < 0.1 ppm
Minimum Inhibitory Concentration, Mixture (Pseudomonas rubescens; [10]): < 0.1 ppm
Minimum Inhibitory Concentration, Compound Used Alone (Pseudomonas rubescens; [3]): < 0.1 ppm
Minimum Inhibitory Concentration, Mixture (Pseudomonas rubescens; Table 2, concentration of the component in ZP+PB mixture, ZP/PB ratio 256, 6 days): < 0.1 ppm
Minimum Inhibitory Concentration, Compound Used Alone [1, 4]: 32.0 ppm
Minimum Inhibitory Concentration, Mixture ([1]; Table 1, concentration of the component in SP+PB mixture, SP/PB ratio 1/10-1/3, 6-7 days): 26.7 ppm
Minimum Inhibitory Concentration, Compound Used Alone [1, 5]: 53.0 ppm
Minimum Inhibitory Concentration, Mixture ([1]; Table 2, concentration of the component in ZP+PB mixture, ZP/PB ratio 1/4-1/2, 7 days): 26.7 ppm
Minimum Inhibitory Concentration, Mixture (Fusarium sp.; [8]): 32.0 ppm
Minimum Inhibitory Concentration, Compound Used Alone (Fusarium sp.; Table 2, alone, Tryptic Soy Broth, 7 days, PB sulfate 7730 units/mg): 106.7 ppm
